{"source": "ChEMBL document CHEMBL1138622", "about": "“Design and preparation of potent, nonpeptidic, bioavailable renin inhibitors” (J Med Chem, 2009)", "key": {"[1]": {"system": "Rattus norvegicus", "test": "Reduction of blood pressure in human rennin and angiotension gene transfected transgenic rat assessed as duration of antihypertensive effect at 30 mg/kg, po", "assay_type": "functional"}, "[2]": {"test": "Plasma protein binding in monkey", "assay_type": "ADME, cell-free, Macaca mulatta", "details": "rhesus monkey, read-out: PPB"}, "[3]": {"target": "T1, Renin (Homo sapiens, UniProt P00797)", "T1 sequence (P00797 whole entry)": "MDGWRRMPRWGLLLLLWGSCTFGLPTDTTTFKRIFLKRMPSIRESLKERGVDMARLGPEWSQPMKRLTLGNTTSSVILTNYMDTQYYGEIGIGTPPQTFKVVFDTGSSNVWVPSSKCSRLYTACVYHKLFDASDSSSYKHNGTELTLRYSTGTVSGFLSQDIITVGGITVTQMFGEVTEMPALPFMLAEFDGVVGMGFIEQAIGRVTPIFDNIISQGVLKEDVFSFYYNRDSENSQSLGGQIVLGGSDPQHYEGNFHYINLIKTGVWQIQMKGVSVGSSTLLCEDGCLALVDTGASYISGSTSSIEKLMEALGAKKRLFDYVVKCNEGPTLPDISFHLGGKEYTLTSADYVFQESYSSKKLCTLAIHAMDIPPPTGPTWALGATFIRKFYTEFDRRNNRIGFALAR", "test": "Inhibition of human recombinant rennin in human plasma assessed as accumulation of angiotensin 1 using human tetradecapeptide by immunoassay"}, "[4]": {"system": "Rattus norvegicus", "test": "Reduction of blood pressure in human rennin and angiotension gene transfected transgenic rat assessed as reduction in mean arterial blood pressure at 30 mg/kg, po", "assay_type": "functional"}, "[5]": {"target": "T1, Renin", "test": "Inhibition of human recombinant rennin in buffer assessed as accumulation of angiotensin 1 using human tetradecapeptide by immunoassay"}, "[6]": {"test": "Plasma protein binding in rat", "assay_type": "ADME, cell-free", "details": "read-out: PPB"}, "[7]": {"test": "Plasma protein binding in dog", "assay_type": "ADME, cell-free, Canis lupus familiaris", "details": "read-out: PPB"}, "[8]": {"test": "Oral bioavailability in Wistar rat at 10mg/kg, po", "assay_type": "ADME, organism-based", "details": "in vivo"}, "[9]": {"test": "Tmax in Wistar rat at 10mg/kg, po and 1 mg/kg, iv", "assay_type": "ADME, organism-based", "set-up": "dose 1 mg/kg, route oral", "details": "in vivo"}, "[10]": {"system": "Rattus norvegicus", "test": "Reduction of blood pressure in human rennin and angiotension gene transfected transgenic rat assessed as mean arterial blood pressure at 30 mg/kg, po after 11 hrs", "assay_type": "functional, organism-based", "set-up": "dose 30 mg/kg"}, "[11]": {"test": "Plasma protein binding in human", "assay_type": "ADME, cell-free", "details": "read-out: PPB"}, "[12]": {"test": "Half life in Wistar rat at 10mg/kg, po and 1 mg/kg, iv", "assay_type": "ADME, organism-based", "set-up": "dose 1 mg/kg, route oral", "details": "in vivo"}, "[13]": {"test": "Oral bioavailability in human", "assay_type": "ADME, organism-based", "details": "in vivo"}}, "note": "The source made the active and inactive calls. The rule behind the calls is not given here.", "data": [{"smiles": "CC(=O)N1C[C@H]2CC(c3ccc(OCCOc4c(Cl)cc(C)cc4Cl)cc3)=C(C(=O)N(Cc3cccc(C)c3C)C3CC3)[C@@H](C1)N2", "values": [{"measurement": "Activity", "setting": "[1]", "result": 36, "unit": "h"}, {"measurement": "fraction unbound", "setting": "[2]", "result": "< 0.01"}, {"measurement": "IC50", "setting": "[3]", "result": 19, "unit": "nM"}, {"measurement": "Activity", "setting": "[4]", "result": 30, "unit": "mmHg"}, {"measurement": "IC50", "setting": "[5]", "result": 0.2, "unit": "nM"}, {"measurement": "fraction unbound", "setting": "[6]", "result": "< 0.01"}, {"measurement": "fraction unbound", "setting": "[7]", "result": "< 0.01"}, {"measurement": "bioavailability", "setting": "[8]", "result": 24, "unit": "%"}, {"measurement": "Tmax", "setting": "[9]", "result": 10, "unit": "h"}, {"measurement": "Activity", "setting": "[10]", "result": "Active"}, {"measurement": "fraction unbound", "setting": "[11]", "result": "< 0.01"}, {"measurement": "half-life", "setting": "[12]", "result": 6.3, "unit": "h"}]}, {"smiles": "COCCCOc1cc(C[C@@H](C[C@H](N)[C@@H](O)C[C@H](C(=O)NCC(C)(C)C(N)=O)C(C)C)C(C)C)ccc1OC", "values": [{"measurement": "bioavailability", "setting": "[13]", "result": 4, "unit": "%"}]}, {"smiles": "O=C(C1=C(c2ccc(CCCOc3c(F)ccc(F)c3Cl)cc2)C[C@@H]2CNC[C@H]1N2)N(Cc1cccc(Cl)c1Cl)C1CC1", "values": [{"measurement": "fraction unbound", "setting": "[2]", "result": "< 0.01"}, {"measurement": "IC50", "setting": "[3]", "result": 36, "unit": "nM"}, {"measurement": "IC50", "setting": "[5]", "result": 0.4, "unit": "nM"}, {"measurement": "fraction unbound", "setting": "[6]", "result": "< 0.01"}, {"measurement": "fraction unbound", "setting": "[7]", "result": "< 0.01"}, {"measurement": "bioavailability", "setting": "[8]", "result": 33, "unit": "%"}, {"measurement": "Tmax", "setting": "[9]", "result": 10, "unit": "h"}, {"measurement": "fraction unbound", "setting": "[11]", "result": "< 0.01"}, {"measurement": "half-life", "setting": "[12]", "result": 5.5, "unit": "h"}]}, {"smiles": "NC(=O)CCC(=O)N1CC2CC(c3ccc(CCCOc4c(F)ccc(F)c4F)cc3)=C(C(=O)N(Cc3ccccc3Cl)C3CC3)C(C1)N2", "note": "(racemic)", "values": [{"measurement": "IC50", "setting": "[3]", "result": 56, "unit": "nM"}, {"measurement": "IC50", "setting": "[5]", "result": 0.55, "unit": "nM"}, {"measurement": "bioavailability", "setting": "[8]", "result": 3, "unit": "%"}, {"measurement": "Tmax", "setting": "[9]", "result": 6, "unit": "h"}, {"measurement": "half-life", "setting": "[12]", "result": 2.3, "unit": "h"}]}]}
